Source: patent US11358985B2, “Tripeptide compound, preparation method therefor, and application thereof” (NORTHWEST UNIVERSITY, priority 2014, dated 2022)

Legend:
[1] = target: angiotensin-converting enzyme (ACE) (UniProt P12822); type: biochemical; conditions: substrate HHL, 37° C., pH 8.3, hippuric acid at 228 nm
mouse ACE = test: In vivo ACE activity test: ACE content in kidney tissue by double antibody sandwich ELISA; set-up: species or system Kunming mice; conditions: for ACE content: male Kunming mice, kidney homogenate, intragastric 0.05 mmol/kg once a day for 7 days, 2 h after final dose
[2] = test system: spontaneously hypertensive rats (SHR); test: Blood pressure in SHR rats after multiple administrations; type: in vivo, rat
Description: (§1) SPF grade male spontaneously hypertensive model rats (SHR) (male, 12 weeks old, body weight 200 g±20 g) were divided into three groups: blank group, control group and sample group, with 6 rats each group. Animals were housed in the Shaanxi Provincial Biomedical Animal Laboratory at the School of Life Sciences of Northwest University at a temperature of 22° C. and a humidity of 50%, with 12 hours light/dark cycle and free to eat and drink water. The SHR rats were trained to adapt to blood pressure measurements after 5 days of adaptation to the environment. Prior to administration, the basal blood pressure of the rats in each group was measured and the systolic blood pressure was between 190±5 mmHg.
(§2) The particular measurement steps: the conscious rats were placed in the fixed box of the blood pressure meter. […] After the signal was stabilized, the blood pressure was measured and the 5 readings with a change in blood pressure less than 10 mmHg were recorded, with an interval of 10 seconds. […]
According to the above method and dose, rats were administered intragastrically continuously for 7 days, once a day. Blood pressure was measured 2 hours after administration. After the end of the administration, blood pressure was measured continuously for 7 days, once a day, and the change in blood pressure was recorded.

[3] = test system: spontaneously hypertensive rats (SHR); test: Blood pressure in SHR rats after one administration (tail pulse indirect pressure measurement); type: in vivo, rat
Description: as §1
The systolic blood pressure of the experimental rats was measured by tail pulse indirect pressure measurement. […]
as §2, with “meter. A heating plate at 30° C. was provided in the bottom of the fixed box, which was preheated for 10 min to expand the local blood vessels.” for “meter.”

angiotensin-converting enzyme (ACE), sequence (P12822 whole entry): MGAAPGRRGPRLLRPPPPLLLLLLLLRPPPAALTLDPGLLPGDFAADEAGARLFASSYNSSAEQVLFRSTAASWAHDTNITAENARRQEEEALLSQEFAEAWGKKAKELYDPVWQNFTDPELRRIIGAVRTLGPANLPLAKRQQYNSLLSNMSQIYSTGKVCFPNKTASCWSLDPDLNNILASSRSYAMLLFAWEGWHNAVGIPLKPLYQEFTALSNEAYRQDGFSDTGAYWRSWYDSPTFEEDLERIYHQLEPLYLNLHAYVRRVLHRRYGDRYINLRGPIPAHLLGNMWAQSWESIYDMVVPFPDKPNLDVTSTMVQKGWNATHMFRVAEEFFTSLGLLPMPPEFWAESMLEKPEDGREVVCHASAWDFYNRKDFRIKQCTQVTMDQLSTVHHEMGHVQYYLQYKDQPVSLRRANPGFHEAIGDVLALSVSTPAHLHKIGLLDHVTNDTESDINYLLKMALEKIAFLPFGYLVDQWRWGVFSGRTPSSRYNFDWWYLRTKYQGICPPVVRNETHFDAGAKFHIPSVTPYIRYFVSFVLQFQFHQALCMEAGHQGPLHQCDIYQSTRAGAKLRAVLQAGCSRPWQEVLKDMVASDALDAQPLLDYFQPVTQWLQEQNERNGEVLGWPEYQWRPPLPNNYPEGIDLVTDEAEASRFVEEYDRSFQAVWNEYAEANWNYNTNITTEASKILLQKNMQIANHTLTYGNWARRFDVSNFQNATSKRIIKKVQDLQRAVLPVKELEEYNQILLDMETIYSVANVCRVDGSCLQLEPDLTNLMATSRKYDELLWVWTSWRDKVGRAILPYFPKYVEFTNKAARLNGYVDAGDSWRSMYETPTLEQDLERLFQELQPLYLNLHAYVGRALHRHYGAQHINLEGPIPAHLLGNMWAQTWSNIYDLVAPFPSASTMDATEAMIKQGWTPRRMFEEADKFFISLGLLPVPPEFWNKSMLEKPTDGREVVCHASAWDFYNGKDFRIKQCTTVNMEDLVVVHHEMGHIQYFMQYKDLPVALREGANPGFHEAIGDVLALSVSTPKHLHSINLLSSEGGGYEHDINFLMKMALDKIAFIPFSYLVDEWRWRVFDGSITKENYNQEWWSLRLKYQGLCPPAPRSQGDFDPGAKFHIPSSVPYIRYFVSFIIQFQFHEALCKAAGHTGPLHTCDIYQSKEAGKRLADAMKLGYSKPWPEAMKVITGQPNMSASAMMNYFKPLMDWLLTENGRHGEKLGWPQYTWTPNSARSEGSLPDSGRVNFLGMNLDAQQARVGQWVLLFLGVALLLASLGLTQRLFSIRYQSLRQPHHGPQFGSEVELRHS

| SMILES | IC50 [1] [nM] | ACE content (mouse ACE) [pg/mL] | also measured |
| --- | --- | --- | --- |
| CC1(C)C2CCC1(C)C(OC(=O)[C@@H]1CCCN1C(=O)[C@@H]1CCCN1C(=O)[C@H](O)Cc1ccc(O)c(O)c1)C2 (stereo in doubt) [Compound 221S-6a] | 43 ± 6 | 76 ± 5 |  |
| C[C@H](NC(=O)[C@H](O)Cc1ccc(O)c(O)c1)C(=O)N1CCC[C@H]1C(=O)OC1CC2CCC1(C)C2(C)C (stereo partly drawn) [Compound 221S-1a] | 23 ± 9 | 64 ± 8 | dose dependence of effect on arterial systolic pressure ([2]; 7 days intragastric at different doses, 14 days (FIG. 5)): dose-dependent; antihypertensive effect (arterial systolic pressure) compared with captopril ([2]; intragastric once a day for 7 days, followed over 14 days (FIG. 4)): better antihypertensive effect than captopril; reduction of ACE content compared with captopril (in words) (mouse ACE; intragastric 0.05 mmol/kg, 7 days, summary of Table 8): most significant reduction effect; dose dependence of antihypertensive effect ([3]; single intragastric administration at different doses, within 6 hours (FIG. 3)): good dose-dependent relationship; antihypertensive effect (arterial systolic pressure) compared with captopril ([3]; single intragastric administration, within 6 hours (FIG. 2, 3)): antihypertensive effect was better than that of captopril |
| C[C@H](NC(=O)[C@@H](O)Cc1ccc(O)c(O)c1)C(=O)N1CCC[C@H]1C(=O)OC1CC2CCC1(C)C2(C)C (stereo partly drawn) [Compound 221S-1b] | 33 ± 6 | 78 ± 12 |  |
| CC(C)[C@H](NC(=O)[C@H](O)Cc1ccc(O)c(O)c1)C(=O)N1CCC[C@H]1C(=O)OC1CC2CCC1(C)C2(C)C (stereo partly drawn) [Compound 221S-2a] | 37 ± 5 | 87 ± 8 |  |
| CC(C)C[C@H](NC(=O)[C@H](O)Cc1ccc(O)c(O)c1)C(=O)N1CCC[C@H]1C(=O)OC1CC2CCC1(C)C2(C)C (stereo partly drawn) [Compound 221S-3a] | 27 ± 7 | 79 ± 7 |  |
| CCC(C)[C@H](NC(=O)[C@H](O)Cc1ccc(O)c(O)c1)C(=O)N1CCC[C@H]1C(=O)OC1CC2CCC1(C)C2(C)C (stereo partly drawn) [Compound 221S-4a] | 34 ± 7 | 82 ± 10 |  |
| CC(C)(C)[C@H](NC(=O)[C@H](O)Cc1ccc(O)c(O)c1)C(=O)N1CCC[C@H]1C(=O)OC1CC2CCC1(C)C2(C)C (stereo partly drawn) [Compound 221S-5a] | 28 ± 9 | 89 ± 11 |  |
| CSCC[C@H](NC(=O)[C@H](O)Cc1ccc(O)c(O)c1)C(=O)N1CCC[C@H]1C(=O)OC1CC2CCC1(C)C2(C)C (stereo partly drawn) [Compound 221S-7a] | 78 ± 5 | 71 ± 9 |  |
| CC1(C)C2CCC1(C)C(OC(=O)[C@@H]1CCCN1C(=O)[C@H](Cc1ccccc1)NC(=O)[C@H](O)Cc1ccc(O)c(O)c1)C2 (stereo partly drawn) [Compound 221S-8a] | 65 ± 5 | 80 ± 7 |  |
| CC1(C)C2CCC1(C)C(OC(=O)[C@@H]1CCCN1C(=O)CNC(=O)[C@H](O)Cc1ccc(O)c(O)c1)C2 (stereo partly drawn) [Compound 221S-15a] | 33 ± 6 | 83 ± 11 |  |
| COc1cc(/C=C/C(=O)N[C@@H](C)C(=O)N2CCC[C@H]2C(=O)OC2CC3CCC2(C)C3(C)C)ccc1O (stereo partly drawn) [Compound 221S-27a] | 44 ± 3 | 82 ± 11 |  |
| C[C@H](NC(=O)/C=C/c1ccc(O)c(O)c1)C(=O)N1CCC[C@H]1C(=O)OC1CC2CCC1(C)C2(C)C (stereo partly drawn) [Compound 221S-28a] | 29 ± 7 | 79 ± 8 |  |
| C[C@H](NC(=O)Cc1ccc(O)c(O)c1)C(=O)N1CCC[C@H]1C(=O)OC1CC2CCC1(C)C2(C)C (stereo partly drawn) [Compound 221S-29a] | 38 ± 5 | 85 ± 8 |  |
| C[C@H](NC(=O)c1ccc(O)c(O)c1)C(=O)N1CCC[C@H]1C(=O)OC1CC2CCC1(C)C2(C)C (stereo partly drawn) [Compound 221S-30a] | 35 ± 6 | 75 ± 8 |  |
| C[C@H](NC(=O)c1cc(O)c(O)c(O)c1)C(=O)N1CCC[C@H]1C(=O)OC1CC2CCC1(C)C2(C)C (stereo partly drawn) [Compound 221S-31a] | 31 ± 8 | 71 ± 13 |  |
